In paper PMC9653453, “Development of truncated elastin-like peptide analogues with improved temperature-response and self-assembling properties” (Scientific Reports, 2022):
Entries after “also recorded” stand apart in the source; their conditions may differ. Ends that are not written are not given here.

Assays:
[1] = Colorimetric (xylenol orange) determination of Zn^2+ removal by peptide coacervation; details: peptide 1.0 mg/mL, mean ± SE
Description: Colorimetric analyses of cadmium ions (Cd^2+) were carried out to evaluate the number of metal ions absorbed into the coacervation phase of the peptides by using a spectral photometer (JASCO V-660)[45]. […] The peptide solutions were incubated at 4 ℃ for 3, 6, or 12 h and then at 60 ℃ for 1.5 h to separate into the lower coacervation phase from the upper equilibrium solution phase. After incubation, the peptide solution was immediately centrifuged at room temperature for 2 min (6,200 rpm) to remove aggregates. An aliquot of 333 µL of supernatant of the equilibrium solution phase was added to 600 µL of acetate buffer solution (pH5.4) including 67 μM of XO and incubated for 10 min. Subsequently, the concentrations of Cd^2+ or Zn^2+ were determined by measuring the absorbance at 575 nm or 550 nm, respectively, which corresponds to the absorbance of the metal-XO complex. The amount of metal ions absorbed in the peptide solution was determined by the calibration line, which was prepared in the same manner by using a series of standard CdCl2 or ZnCl2 aqueous solutions of known concentrations. […] The statistical significance of the difference between the concentration of each metal ion in the supernatant and the control solution was determined using the Student's t-test. […]

[2] = Turbidity measurement of AADAAC-(FPGV)4 in Tris-HCl buffer pH 8.4 with or without CdCl2 / NaCl; format: physicochemical; details: for Tt: turbidity at 400 nm, mean ± SE, at least three measurements
Description: This hexapeptide sequence strongly and selectively binds to cadmium above pH 6.0, whereas this peptide releases metal ions below pH 4.0[51]. […] To assess the self-assembly property, turbidity measurements of AADAAC-(FPGV)4 were carried out under the same conditions as described above (Table 2 and Fig. 8). First, AADAAC-(FPGV)4 was dissolved to a concentration of 10 mg/mL in Tris–HCl buffer (pH 8.4) instead of phosphate buffer (pH 7.4), considering its use as a metal scavenging agent under basic conditions. Under these conditions, the Tt of AADAAC-(FPGV)4 was 41.6 ± 1.0 ℃ at a peptide concentration of 10 mg/mL. Since Tt tended to increase with the proportion of hydrophilic residues in the peptide, the self-assembling ability of AADAAC-(FPGV)4 was weakened compared with that of (FPGV)4, owing to the presence of hydrophilic Asp and Cys residues in the AADAAC sequence conjugated to (FPGV)4[34]. On the other hand, in the presence of Cd^2+, AADAAC-(FPGV)4 was insoluble in the solution. Therefore, the binding of the AADAAC sequence to Cd^2+ ions was thought to contribute to the enhanced self-assembly of AADAAC-(FPGV)4 in the presence of the metal ions. […] This characteristic of AADAAC-(FPGV)4 was similar to that of AADAAC-(FPGVG)4, which we previously reported. Subsequently, to verify whether this peptide can be used as a metal recovery agent at a lower peptide concentration, turbidity measurement using a low-concentration peptide solution (0.5 mg/mL, 0.236 mM) was performed. […] Thus, turbidity was measured in Tris–HCl buffer (50.0 mM Tris, 0.236 mM CdCl2, pH 8.4) containing 0.9% NaCl (154 mM, equivalent to saline), because it has been reported that salts such as NaCl increase the self-association and decrease the Tt of ELPs[52]. […] Owing to this drastic change in water solubility in the presence and absence of cadmium ions, AADAAC-(FPGV)4 was considered to be useful as a Cd^2+-selective metal-scavenging agent.
Turbidity measurements were performed in accordance with previous reports. The temperature-dependent self-assembling properties of the ELP analogues were evaluated using a JASCO V-660 spectral photometer (JASCO Co., Tokyo, Japan). Peptide sample solutions of different concentrations (2.0, 5.0, 10, 20, 30, or 50 mg/mL) were prepared by dissolving each peptide (except for AADAAC-(FPGV)n) in phosphate buffer (27.4 mM Na2HPO4, 17.8 mM NaH2PO4, pH 7.4). […] Turbidity was measured at 400 nm with increasing or decreasing temperature at a rate of 0.5 ℃/min from 5 ℃. The concentration of each sample solution was measured at least three times. […]

[3] = Colorimetric (xylenol orange) determination of Cd^2+ removal by peptide coacervation; details: peptide 1.0 mg/mL; for Concentration of metal ion in the supernatant: Cd^2+ (0.236 mM CdCl2), Tris-HCl (50.0 mM Tris, 599 mM NaCl, pH 8.0), at least three measurements; for Concentration of metal ion in the supernatant / Removal efficiency: mean ± SE; for Removal efficiency: Cd^2+, versus control without peptide
Description: Colorimetric analyses of cadmium ions (Cd^2+) were carried out to evaluate the number of metal ions absorbed into the coacervation phase of the peptides by using a spectral photometer (JASCO V-660)[45]. […] The peptide solutions were incubated at 4 ℃ for 3, 6, or 12 h and then at 60 ℃ for 1.5 h to separate into the lower coacervation phase from the upper equilibrium solution phase. After incubation, the peptide solution was immediately centrifuged at room temperature for 2 min (6,200 rpm) to remove aggregates. An aliquot of 333 µL of supernatant of the equilibrium solution phase was added to 600 µL of acetate buffer solution (pH5.4) including 67 μM of XO and incubated for 10 min. Subsequently, the concentrations of Cd^2+ or Zn^2+ were determined by measuring the absorbance at 575 nm or 550 nm, respectively, which corresponds to the absorbance of the metal-XO complex. The amount of metal ions absorbed in the peptide solution was determined by the calibration line, which was prepared in the same manner by using a series of standard CdCl2 or ZnCl2 aqueous solutions of known concentrations. The homogeneity of variances between the concentration of each metal ion in the supernatant and the control solution was confirmed using the F test. The statistical significance of the difference between the concentration of each metal ion in the supernatant and the control solution was determined using the Student's t-test. Results were considered statistically significant at P values of ≤ 0.01.

[4] = RP-UPLC retention time, used as measure of peptide hydrophobicity; format: physicochemical; details: RP-UPLC-MS; chromatographic
Description: Peptide synthesis was carried out using the conventional solid-phase peptide synthesis procedure (see supplementary information). The synthesized peptides were purified using RP-HPLC. The purity and molecular weight of each peptide were confirmed using RP-UPLC-MS (Table S1 and Fig. S1). […]
Retention times of each peptide were determined by RP-UPLC-MS.

[5] = Turbidity measurement (phase transition temperature Tt, coacervation) in phosphate buffer pH 7.4; format: physicochemical; details: turbidity at 400 nm, heating 0.5 ℃/min from 5 ℃, mean ± SE, at least three measurements
Description: Turbidity measurements were performed in accordance with previous reports. The temperature-dependent self-assembling properties of the ELP analogues were evaluated using a JASCO V-660 spectral photometer (JASCO Co., Tokyo, Japan). Peptide sample solutions of different concentrations (2.0, 5.0, 10, 20, 30, or 50 mg/mL) were prepared by dissolving each peptide (except for AADAAC-(FPGV)n) in phosphate buffer (27.4 mM Na2HPO4, 17.8 mM NaH2PO4, pH 7.4). AADAAC-(FPGV)4 was dissolved in Tris–HCl buffer solution (50.0 mM Tris, at pH 8.4 or 50.0 mM Tris, 154 mM NaCl, at pH 8.4) to prepare sample solutions of a concentration of 0.5 or 10 mg/mL in the absence or presence of the equimolar amount of CdCl2. Turbidity was measured at 400 nm with increasing or decreasing temperature at a rate of 0.5 ℃/min from 5 ℃. The concentration of each sample solution was measured at least three times. The self-assembling property was described by the phase transition temperature (Tt), which is the temperature at which the turbidity of the solution reaches half the maximum value.

[6] = Optical microscopy of peptide aggregates with image analysis of particle size; format: physicochemical; details: peptide 10 mg/mL, phosphate buffer pH 7.4
Description: The morphology of the coacervates of (FPGVG)4, (FPGV)4, and (FPG)4 was observed using optical microscopy. Light field observation was performed using a Leica DM IL LED microscope (Leica Microsystems CMS, Wetzlar, Germany) equipped with HI PLAN 40 × (Leica Microsystems CMS) and HC PLAN 10 × (Leica Microsystems CMS) objectives. Each peptide was dissolved in phosphate buffer (27.4 mM Na2HPO4, 17.8 mM NaH2PO4, at pH 7.4) to a concentration of 10 mg/mL and applied on a glass slide. Sample imaging was performed below and above the Tt of each peptide using a Thermo Plate TP-CHSQM (Tokai Hit Co., Ltd., Shizuoka, Japan). Sample images above Tt were taken 3 min after the sample reached the target temperature. The details of the image analysis is shown in the Supplementary Information file.
Size distribution of coacervates of ELP analogues formed above the Tt was analyzed using optical microscopy images of each peptide. Image analysis was performed using Image J/Fiji (NIH, USA), an open-source image analysis software.^2 Spatial calibration was carried out using […] in original images. The images of peptide coacervates were converted to a binary image via the menu command Image > Type > 8-bit. Using "analyze particle" command, the Feret diameters of the particles within the image were measured.

[7] = Dynamic light scattering (DLS) size distribution of coacervates; format: physicochemical; details: 10 to 50 ℃ in 10 ℃ steps; phosphate buffer pH 7.4; peptide concentrations as in Fig. 3 (2.0-50 mg/mL)
Description: The distribution of the particle size in the truncated ELP analogue solution was analyzed via DLS using Zetasizernano ZS (Malvern Instruments Ltd., Worcestershire, U.K.) in a measurement cell ZEN0112 (Malvern Instruments Ltd.)[33]. Peptide samples of different concentrations (2.0, 10, 20, 30, or 50 mg/mL) were prepared by dissolving each peptide in phosphate buffer (27.4 mM Na2HPO4, 17.8 mM NaH2PO4, pH 7.4) and filtered using the Millex-LG filter (pore size 0.2 µm, Merck Millipore) before measurement. DLS analysis was performed by increasing the temperature at 10 ℃ intervals from 10 to 50 ℃. Measurement duration was selected automatically. Parameter dataset “protein” (dataset: refractive index, 1.450; absorption, 0.001) was used as the material parameter, and parameter dataset “water” (dataset: refractive index, 1.330; viscosity, 0.8872) was chosen as the dispersant parameter. Attenuation was selected automatically. Each concentration was measured at least three times.

[8] = Time-lapse thioflavin T (ThT) fluorescence assay; format: physicochemical; details: peptide 10 mg/mL; phosphate buffer pH 7.4; 15, 30 and 45 ℃; excitation 446 nm, emission 483 nm
Description: Thiofalvin T (ThT) fluorescence measurements were performed for (FPGVG)5, (FPGVG)4, (FPGV)5, and (FPGV)4. Each peptide was dissolved in phosphate buffer (27.4 mM Na2HPO4, 17.8 mM NaH2PO4, pH 7.4) to different concentrations (1.0 mg/mL for (FPGV)5, 5.0 mg/mL for (FPGVG)5 and (FPGV)4, and 10 mg/mL for (FPGVG)4, respectively). Then, 1 mM of ThT aqueous solution was added to each sample at a final ThT concentration of 25 μM) followed by incubation for 1 h at 4 °C. The fluorescence intensity was measured using a FP-8500 spectrofluorometer (JASCO Co.). The excitation was set at 446 nm and the emission was recorded at 483 nm. The fluorescence intensities of samples were monitored at 15 °C for 30 min. Then, the sample temperature was raised to 30 °C and the measurements were performed for another 30 min. The same measurement was also carried out at 45 °C for (FPGV)4.

Tt, phase transition temperature ([5]; peptide 5.0 mg/mL, phosphate buffer pH 7.4, half-maximal turbidity)	Tt, phase transition temperature ([5]; peptide 10 mg/mL, phosphate buffer (27.4 mM Na2HPO4, 17.8 mM NaH2PO4, pH 7.4), Tt = temperature at half-maximal turbidity)	Morphology of aggregates (optical microscopy, in words) [6]	Particle size of coacervates (optical microscopy image analysis, Feret diameter) ([6]; above Tt ((FPGVG)4 40 °C, (FPGV)4 25 °C), ImageJ/Fiji)	ThT fluorescent intensity versus temperature (in words) [8]	Substance	Concentration of metal ion in the supernatant ([1]; Zn^2+ (0.236 mM ZnCl2), incubation 12 h at 4 ℃ then 60 ℃ 1.5 h, Tris-HCl (50.0 mM Tris, 599 mM NaCl, pH 8.0), xylenol orange absorbance 550 nm, at least three measurements)	Removal efficiency ([1]; Zn^2+, incubation 12 h, versus control without peptide)	Tt ([2]; peptide 0.5 mg/mL (0.236 mM), Tris-HCl buffer (50.0 mM Tris, pH 8.4) with 154 mM NaCl and 0.236 mM CdCl2 (equimolar))	Coacervation (in words) ([2]; peptide 0.5 mg/mL (0.236 mM), Tris-HCl buffer (50.0 mM Tris, pH 8.4) with 154 mM NaCl, absence of Cd^2+)	Tt / solubility in the presence of Cd^2+ ([2]; peptide 10 mg/mL (4.71 mM), Tris-HCl buffer (50.0 mM Tris, pH 8.4) with 4.71 mM CdCl2)	Tt ([2]; peptide 10 mg/mL (4.71 mM), Tris-HCl buffer (50.0 mM Tris, pH 8.4), no additive, 0.5 ℃/min)	Concentration of metal ion in the supernatant ([3]; incubation 3 h at 4 ℃ then 60 ℃ 1.5 h, xylenol orange absorbance 575 nm)	Concentration of metal ion in the supernatant ([3]; incubation 6 h at 4 ℃ then 60 ℃ 1.5 h)	Concentration of metal ion in the supernatant ([3]; incubation 12 h at 4 ℃ then 60 ℃ 1.5 h)	Removal efficiency ([3]; incubation 6 h)	Removal efficiency ([3]; incubation 12 h)	Cd^2+ concentration remaining in the supernatant ([3]; incubation for 12 h at 4 ℃ before heating)	UPLC retention time (measure of hydrophobicity) [4]	Temperature-dependent particle size by DLS (in words) [7]
–	–	–	–	–	AADAACFPGVFPGVFPGVFPGV-NH2 [AADAAC-(FPGV)4, H-AADAAC-(FPGV)4-NH2]	4.4 ± 0.008 ppm	75.3 ± 0.001%	13.8 ± 0.1 °C	did not show coacervation	insoluble; also recorded: Not dissolved	41.6 ± 1.0 °C	6.8 ± 0.11 ppm	2.5 ± 0.49 ppm	1.3 ± 0.046 ppm	90.9 ± 0.018%	95.1 ± 0.002%	4.9%	2.496 min	–
47.5 ± 0.3 °C	33.8 ± 0.3 °C	spherical aggregates	about 1 µm	significantly elevated at 45 °C	FPGVGFPGVGFPGVGFPGVG-NH2 [(FPGVG)4, reference compound]	–	–	–	–	–	–	–	–	–	–	–	–	2.251 min	formed sub-micron particles below Tt, which grew into micrometer-sized particles above Tt
